Measured values taken from ChEMBL document CHEMBL1157539, “Thousands of chemical starting points for antimalarial lead identification” (Nature, 2010).

test system: Plasmodium falciparum; assay: GSK_TCMDC: Inhibition of Plasmodium falciparum 3D7 in whole erythrocytes, using parasite LDH activity as an index of growth.; assay type: functional, organism-based; settings: Plasmodium falciparum, 3D7

Structure (SMILES)	XC50 [nM]
COC(=O)/C=C/C(=O)N[C@@H]1CC[C@@]2(O)[C@H]3Cc4ccc(O)c5c4[C@@]2(CCN3CC2CC2)[C@H]1O5	639
O=C(NCc1ccc(F)cc1)Nc1cccc(-c2ccc(-c3nc4cc(F)ccc4[nH]3)cc2)c1	226
O=[N+]([O-])c1cccc(CNCC2CCN(Cc3ccc(C(F)(F)F)cc3)CC2)c1	245
COc1ccc2ncn(-c3ccc(C(N)=O)c(OCc4ccccc4C(F)(F)F)c3)c2c1	540
COc1ccc(F)cc1-c1cccc(CNC2CCN(CC3Cn4c(=O)ccc5ccc(F)c3c54)CC2)c1 (stereo unspecified)	830
CCN(CCN(C)C)Cc1ccc(-c2ccc(NS(=O)(=O)c3cccc4cccnc34)cc2)cc1	931
COc1ccc(CCNC(C)Cc2ccc(C(=O)Nc3ccc(CC(C)NCCc4cccc(Cl)c4)cc3)cc2)cc1 (stereo unspecified)	248
CCOc1c(Br)cc(Cl)cc1CNCCCNc1nc2ccccc2[nH]1	689
CNC(=O)COc1ccc(Nc2nnc(-c3ccc(C)c(S(=O)(=O)NCC4CCCO4)c3)c3ccccc23)cc1 (stereo unspecified)	933
COC(=O)CN(C(=O)/C=C/c1ccc(Cl)c(Cl)c1)C1CCC(CN2CCC(c3c[nH]c4ccccc34)CC2)CC1 (stereo unspecified)	507
O=C(Nc1ccc2c(c1)CCC2)c1cnc(N2CCN(c3ccncc3)CC2)c(Cl)c1	1110
CC1(C)NC(N)=NC(=N)N1OCCCOc1cccc(Cl)c1	3.2
Cc1cc(N2CCN(C3CCCCC3)CC2)nc2cccc(O)c12	701
COc1ccc2nccc([C@@H](O)CN3CCC(NC(=O)C(c4ccsc4)N4CCN(c5ccccc5OC)CC4)CC3)c2c1 (stereo partly specified)	832
Cc1cc2ncc(C(N)=O)c(Nc3ccc(N4CCOCC4)cc3)c2cc1S(C)(=O)=O	675
OC(CNc1ccnc(Nc2ccccc2)n1)c1ccc(C(F)(F)F)cc1 (stereo unspecified)	606
O=C(/C=C/c1ccc(Cl)c(Cl)c1)N1CCC(CN2CCC(Cc3nc4ccccc4[nH]3)CC2)CC1	254
O=C(Nc1cc(F)cc(F)c1)NC1CCN(CCCCCNC(=O)C2CC2c2ccc(Cl)c(Cl)c2)CC1 (stereo unspecified)	750
O=C(NC1CCN(CCC[C@]2(c3ccc(Cl)c(Cl)c3)CCCN(C(=O)c3ccccc3)C2)CC1)c1ccc(F)cc1	883
CC[C@H]1CN2CC[C@H]1C[C@H]2[C@H](O)c1cc(-c2ccc(F)cc2C)nc2ccc(OC)cc12	157
COc1ccc(-c2cnc(N)c(-c3nc4cc(Br)ccc4[nH]3)c2)cc1	1560
CN1CCN(c2ccc(Nc3c(C(N)=O)cnc4cc(-c5ccoc5)ccc34)cc2)CC1	806
O=C(Nc1cccc(CN2CCCN(Cc3cccc(Cl)c3)CC2)c1)c1ccc(-c2ccccc2)cc1	1230
CC(=O)Nc1ccc2[nH]cc(C3CCN(CCC4CCN(C(=O)/C=C/c5ccc(Cl)c(Cl)c5)CC4)CC3)c2c1	776

Structure (SMILES)	XC50 [nM]
O=C(c1cc(-c2cccs2)n[nH]1)N1CCN(S(=O)(=O)c2ccc(Cl)cc2)CC1	292
CNCCNCc1cccc(-c2ccc(-c3nc4cc(C(F)(F)F)ccc4[nH]3)cc2)c1	693
CCC(CC)CN1C(=O)C(c2ccccc2)(c2ccccc2)N=C1N	970
O=C(Nc1ccc(OC(F)(F)F)cc1)NC1CCN(c2ccnc3ccccc23)C1 (stereo unspecified)	244
COc1cc(C)c(C(O)CNC(C)CCc2ccccc2)cc1C (stereo unspecified)	730
CNCCCN(C)C(=O)Oc1c(Br)c(C)nc(C)c1-c1ccc(Oc2ccc(OC(F)(F)F)cc2)cc1	386
CC(C)Nc1ccc(Nc2ccnc3cc4ccccc4cc23)cc1	142
Cc1[nH]c(C)c(-c2ccc(Oc3cccc(Cl)c3)cc2)c(=O)c1Br	34.2
CN1CCN(CC2(Nc3nccc(NCc4ccc(Cl)cc4Cl)n3)CCCCC2)CC1	593
COc1ccc(-c2csc(NC(=O)CCC(=O)O)n2)cc1OC	842
CCCCC#Cc1cnc2nc(N)[nH]c(=O)c2n1	646
Cc1noc(C)c1-c1ccc2c(Nc3ccc(Cl)cc3)c(C(N)=O)cnc2c1	826
Cc1cc(N2CCCC2)nc(Nc2ccc(NC(=O)C3CCCC3)cc2)n1	1110
CCN(CCCN1CCCCC1)c1cc(C)nc(Nc2cccc3c2CCCC3)n1	1030
Cc1nnc2c(NC(=O)NC(C)C)cc3cc(-c4ccc(CN5CCCCC5)cc4)ccc3n12	1180
CCCc1cc(Cc2cnc(N)nc2N)cc(CCC)c1O	277
CC1CCN(C(=O)CSc2nc(-c3ccc(C(C)C)cc3)no2)CC1	1350
O=C(c1ccc(Cl)cc1)N1CCCC(C(=O)N(Cc2nnc(-c3ccccc3Cl)o2)C2CC2)C1 (stereo unspecified)	227
OCCN1CCN(Cc2ccc(-c3ccc(-c4nc5cc(C(F)(F)F)ccc5[nH]4)s3)cc2)CC1	379
O=C(Nc1ccccc1Cc1ccccc1)c1ccccc1C(F)(F)F	782
COc1ccc(C(=O)Nc2ccc3nc(N4CCCCC4)cc(C)c3c2)cc1[N+](=O)[O-]	779
Cc1cccc2nc(-c3ccc(-c4cccc(CN5CCN(c6ccc(C#N)cn6)CC5)c4)s3)[nH]c12	1420
CCCCCCCCCn1c(NCc2cc(Cl)ccc2O)nc2ccccc21	825
CC(C)CC(NC(=O)c1cccc(OCCN2CCOCC2)c1)C(=O)NC(/C=N/NC(=O)c1ccccc1)CCc1ccccc1 (stereo unspecified)	251

Structure (SMILES)	XC50 [nM]
C=CCc1cc(SC)ccc1Oc1ccc(N)cc1	742
COCCN1CCC(C(=O)NCC(C)(C)c2nc(-c3ccc(Br)c(O)c3)c(-c3ccncc3)[nH]2)CC1	911
O=C(/C=C/c1ccc(Cl)c(Cl)c1)NCCCCCN1CCCC(CNC(=O)/C=C/c2ccccc2)C1 (stereo unspecified)	791
O=C(c1ccc(-c2ccc(-c3nc4ccccc4[nH]3)s2)cc1)N1CCCCC1CN1CCC(O)C1 (stereo unspecified)	1050
COc1ccccc1C1CCN(C2CCC(NC(=O)/C=C/c3ccc(C(F)(F)F)cc3)CC2)CC1 (stereo unspecified)	1160
CN(Cc1ccc(-c2ccc(C(F)(F)F)cc2)cc1)C(=O)Cn1c(CCc2cccc(F)c2F)nc(=O)c2ccc(N3CCN(CCN4CCCCC4)CC3)nc21	764
O=C(CSc1nccn1Cc1ccco1)Nc1cc(C(F)(F)F)ccc1Cl	822
CCN(C)c1cc(C(=O)N[C@@H](Cc2ccccc2)[C@H](O)CNC(C)(C)c2cccc(OC)c2)cc(N2CCCC2=O)c1	73
O=C(/C=C/c1c(Cl)cccc1Cl)NC1CCC(CN2CCC(Cc3cc4ccccc4[nH]3)CC2)CC1 (stereo unspecified)	975
CC(C)(CNC(=O)[C@H]1CCCN1)c1nc(-c2ccc(Cl)c(O)c2)c(-c2ccncc2)[nH]1	1270
COc1ccc(S(=O)(=O)NC2CCN(CCCOc3ccnc4cc(Cl)ccc34)C2)cc1OC (stereo unspecified)	1050
COc1ccc2c(NN=Cc3ccccc3F)ccnc2c1	213
CCN(CC)CCOC(=O)c1ccc(NC(=O)c2cn(-c3ccccc3)nc2-c2cccs2)cc1	379
Cc1cc(O)c(CNC2CCCCC2)cc1C	1050
CCNc1cc(C(=O)N[C@@H](Cc2ccccc2)[C@H](O)CNCCC(C)(C)C)c(F)c(N2CCCCS2(=O)=O)c1	797
Cc1nnc2c(NC(=O)NC3CCCC3)cc3cc(-c4ccc(CN5CCCCC5)cc4)ccc3n12	948
COc1cc2c(cc1C(F)(F)F)N(C(=O)Nc1cc(OC(F)(F)F)cc(-c3cccnc3)c1)CC2	41.5
CC(C)N1CCN(C(CN2CCN(CCCOc3ccc4nonc4c3)CC2)c2ccc(F)cc2)CC1 (stereo unspecified)	796
Cc1ccc(S(=O)(=O)Nc2ccc(Nc3nccc(Nc4cccc5[nH]ncc45)n3)cc2)cc1	958
Cc1ccc(N2C(N)=NC(N)=NC2(C)C)cc1	36.6
NCC1CCCN1Cc1ccc(-c2ccc(-c3nc4ccccc4[nH]3)s2)cc1 (stereo unspecified)	934
CCCNC(=O)Nc1cc2cc(-c3cccc(CN4CCCCC4)c3)ccc2n2c(C)nnc12	1110
COc1cc2nc(SCCCC#N)n(C3CCCCCC3)c(=N)c2cc1OC	1140
CCN1CCC(N(Cc2ccc(-c3ccc(C(F)(F)F)cc3)cc2)C(=O)Cn2c(CCc3cccc(F)c3F)cc(=O)c3ccccc32)CC1	832

Structure (SMILES)	XC50 [nM]
O=C(Nc1ccc(N2CCN(Cc3c[nH]c4cc(F)ccc34)CC2)cc1)c1ccccc1-c1ccc(C(F)(F)F)cc1	985
Cc1cc(N2CCCN(C)CC2)nc(Nc2ccc(Cl)cc2)n1	795
NC(=O)Nc1ccc2c(Nc3ccc(OCc4ccccc4)cc3)ncnc2c1	1260
CC(=O)N1N=C(c2ccc(F)cc2)Sc2c1nc(C1CCCCC1)n2C(C)=O	891
Cc1cccc2nc(-c3cccc(-c4ccc(CNCc5cnn(-c6ccccc6)n5)cc4)c3)[nH]c12	921
CC1CCCN(C(=O)c2cc(-c3ccccn3)nc3c(Cl)cccc23)C1 (stereo unspecified)	1080
COc1cc2ncnc(Nc3ccc(OCc4ccccc4Br)c(OC)c3)c2cc1OC	427
CN1CCC(C(=O)N(Cc2ccc(-c3ccc(CNCCc4ccccc4)cn3)cc2)C2Cc3ccccc3C2)CC1	1060
COc1cccc(-c2nc3c(N4CCN(c5ccncc5)CC4)cccc3n2CC2CCCCCN2)n1 (stereo unspecified)	1060
C=C[C@]1(C)C[C@@H](OC(=O)NC(=O)CCCS(=O)(=O)c2nnc(C)s2)[C@]2(C)[C@H](C)CC[C@]3(CCC(=O)[C@H]32)[C@@H](C)[C@@H]1O	31.5
CCn1c(CN2CCN(Cc3ccccc3)CC2)nc2cc(NC(=O)c3cccs3)ccc21	402
CS(=O)(=O)N1CC2(CCN(CCC(NC(=O)/C=C/c3ccccc3)c3ccc(Cl)c(Cl)c3)CC2)c2ccccc21 (stereo unspecified)	782
Cc1cc(C)c2cc(CNCCCNc3nc4ccccc4[nH]3)[nH]c2c1	768
CN(CCCCN)Cc1ccc(-c2ccc(Cl)cc2)cc1	882
Cc1cc(N[C@@H](Cc2ccccc2)C(=O)Nc2ccccc2)nc(NCCN2CCCC2)n1	1810
O=C(NC1CCN(c2ccnc(Nc3ccc(F)cc3)n2)C1)c1cc2ccccc2s1 (stereo unspecified)	716
OC(CNc1cccc(Cl)c1)Cn1c2ccc(Cl)cc2c2cc(Cl)ccc21 (stereo unspecified)	958
CC(Oc1ccc(NC(=O)c2cccs2)cc1)C(=O)c1ccc(Cl)cc1 (stereo unspecified)	774
O=[N+]([O-])c1ccc(C(O)CNCCc2ccccc2)cc1OCc1ccccc1 (stereo unspecified)	912
CCCc1cc(OC)c(CC2c3cc(O)c(Cl)cc3C(c3ccccc3)CN2C)cc1OC (stereo unspecified)	430
O=S(=O)(Nc1cccc(CCN2CCC(N3CCCCC3)CC2)c1)c1ccccc1C(F)(F)F	1150
N#Cc1ccc(CCNc2nccc(-c3cccc(CN4CCNCC4)c3)n2)cc1	1250
COCCn1c(-c2cccc(Cl)c2)nn(-c2ccc([N+](=O)[O-])cc2Cl)c1=S	737
CCCCN1CCN(Cc2cccc(NC(=O)c3ccc(Cl)c(Cl)c3)c2)CC1	1160
